# Key:
# [1] = target: T1, hPPARα (Homo sapiens, UniProt Q07869); test: Gal4-hPPARα transactivation in COS-7 cells (luciferase); format: cell-based; conditions: for EC50: Gal4-hPPARα chimera, COS-7 cells, 24 hours
# T1 construct: DNA fragments amplified by PCR and corresponding to the DEF domains of human PPARα, PPARγ, and PPARδ nuclear receptors; expressed in transfected cells; host or cells: COS-7
# T1 sequence (Q07869 239-466 limits assumed): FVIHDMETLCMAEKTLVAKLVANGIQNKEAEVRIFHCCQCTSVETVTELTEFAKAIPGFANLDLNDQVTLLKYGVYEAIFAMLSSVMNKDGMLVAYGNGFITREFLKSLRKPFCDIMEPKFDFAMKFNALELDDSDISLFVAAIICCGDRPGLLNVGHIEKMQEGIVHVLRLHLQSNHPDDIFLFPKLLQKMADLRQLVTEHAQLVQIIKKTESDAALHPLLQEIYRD
# Protocol: The activation of PPARs was evaluated in vitro using a monkey kidney fibroblast line (COS-7) by measuring the transcriptional activity of chimeras made up of the DNA binding domain of the Gal4 transcription factor of yeast and of the binding domain to the ligand of the different PPARs. The compounds were tested at doses of between 0.01 and 100 μM on Gal4-PPARα, γ, and δ chimeras.
# COS-7 cells came from ATCC (American type culture collection) and were cultivated in a DMEM medium supplemented with 10% (vol/vol) of fetal calf serum, 100 U/ml of penicillin (Gibco, Paisley, UK) and 2 mM of L-Glutamine (Gibco, Paisley, UK). The cells were incubated at 37° C. under humid atmosphere containing 5% CO2.
# The plasmids Gal4(RE)_TkpGL3, pGal4-hPPARα, pGal4-hPPARγ, pGal4-hPPARδ and pGal4-φ have been described in the literature (Raspe E et al., 1999). The constructions pGal4-hPPARα, pGal4-hPPARγ, and pGal4-hPPARδ were obtained by cloning, in the pGal4-φ vector, DNA fragments amplified by PCR and corresponding to the DEF domains of human PPARα, PPARγ, and PPARδ nuclear receptors.
# The COS-7 cells in suspension were transfected with 150 ng of DNA per well, with a pGal4-PPAR/Gal4(RE)_TkpGL3 ratio of 1/10, in presence of 10% fetal calf serum. The cells were then plated in 96-well plates (4×10^4 cells/well), then incubated for 24 hours at 37° C. Activation with the test compounds was performed for 24 hours at 37° C. in a medium without serum. At the end of the experiment, the cells were lysed and the luciferase activity was determined using the Steady-Lite™ HTS (Perkin Elmert) or the Steady Glow Luciferase kit (Promega), in accordance with the provider's recommendations.
# The compounds according to the invention were tested at doses between 0,01 and 100 μM on the 3 PPAR isoforms. The results obtained are presented in detail under FIG. 1a.
# [2] = test system: SHR rats (spontaneous hypertensive rats); test: SHR rats treated 14 days: plasma triglycerides, arterial pressure, response to angiotensin II; format: in vivo, rat
# Protocol: SHR rats (spontaneous hypertensive rats) (male sex—300-320 g—16-weeks old—Charles River France) were kept on a light/dark cycle of 12/12 hours at a constant temperature of 20±3° C. The compounds according to the invention being tested were suspended in carboxymethylcellulose (Sigma c4888) and administered to the animals by intra-gastric gavage, once a day for 14 days at the chosen doses. The animals had free access to food and water.
# At the end of the experiment, after a 5-hour fast, the animals were anesthetized for surgery with pentobarbital (50 mg/kg). A catheter treated with heparin was placed in the carotid artery to measure arterial pressure. A second catheter was placed in the jugular vein to administer angiotensin II. Arterial pressure was measured and recorded at basal tone for 15 minutes. At this stage, the average arterial pressure of the control animals is compared to that of the animals having received the compounds according to the invention. After 15 minutes, three successive intravenous administrations of angiotensin II (50 ng/kg) were performed to evaluate the response to angiotensin II of animals treated with the compounds according to the invention.
# At the end of the arterial pressure measurements, a blood sample was taken using anticoagulant (EDTA), then the animals were euthanized. The plasma was separated by centrifugation at 3000 rotations/minute for 20 minutes. The samples were kept at +4° C.
# Plasma total concentrations of cholesterol, triglycerides, free fatty acids, and glucose were measured by enzymatic assays (bioMerieux-Lyon-France and Wako-Japan) according to the provider's recommendations.
Compound,EC50 [1],"hypertension induced by angiotensin II (difference of arterial pressure) ([2]; chronic treatment, 100 mpk, repeated administrations of angiotensin II)","activation of hPPARα (luciferase activity) ([1]; COS-7 cells transfected pGal4-hPPAR, 0.01 to 100 μM)","arterial pressure before administrations of angiotensin II ([2]; 14 days of treatment, 150 mpk)","plasma triglyceride rate ([2]; 14 days of treatment, 150 mpk, intra-gastric)","hypertension induced by angiotensin II (difference of arterial pressure) ([2]; 14 days of treatment, 150 mpk, three intravenous administrations of angiotensin II 50 ng/kg)"
"CCCCC1=NC2(CCCCC2)C(=O)N1Cc1ccc(-c2cccc(OC(C)(C)C(=O)O)c2)cc1 [Compound 21, 2-butyl-1-[(3′-((1-carboxy-1,1-dimethylmethyl)oxy)biphenyl-4-yl)methyl]-4-spirocyclohexyl-1H-imidazol-5(4H)-one]",600 nM,significant antagonist effect on angiotensin II,,,,
"CCCCC1=NC2(CCCC2)C(=O)N1Cc1ccc(-c2cccc(OC(C)(C)C(=O)O)c2)cc1 [Compound 1, 2-butyl-1-[(3′-((1-carboxy-1,1-dimethylmethyl)oxy)biphenyl-4-yl)methyl]-4-spirocyclopentyl-1H-imidazol-5(4H)-one]",3000 nM,,activate the two PPAR isoforms,antihypertensive effect,unexpectedly decreased,significant antagonist effect on angiotensin II

# Reference: patent publication US20100004159A1, “SUBSTITUTED IMIDAZOLONE DERIVATIVES, PREPARATIONS AND USES” (GENFIT, priority 2006, published 2010)
